Data published in ChEMBL document CHEMBL2074531, “Physicochemical parameters responsible for the affinity of methotrexate analogs for rat canalicular multispecific organic anion transporter (cMOAT/MRP2)” (Pharm Res, 2001).

target: ATP-binding cassette sub-family C member 2 (Rattus norvegicus, UniProt Q63120); assay: TP_TRANSPORTER: inhibition of DNP-SG uptake in bile canalicular membrane vesicles from SD rat; type: functional, cell membranes, Sprague-Dawley, Bile canalicular membrane vesicle
Sequence (Q63120 whole entry): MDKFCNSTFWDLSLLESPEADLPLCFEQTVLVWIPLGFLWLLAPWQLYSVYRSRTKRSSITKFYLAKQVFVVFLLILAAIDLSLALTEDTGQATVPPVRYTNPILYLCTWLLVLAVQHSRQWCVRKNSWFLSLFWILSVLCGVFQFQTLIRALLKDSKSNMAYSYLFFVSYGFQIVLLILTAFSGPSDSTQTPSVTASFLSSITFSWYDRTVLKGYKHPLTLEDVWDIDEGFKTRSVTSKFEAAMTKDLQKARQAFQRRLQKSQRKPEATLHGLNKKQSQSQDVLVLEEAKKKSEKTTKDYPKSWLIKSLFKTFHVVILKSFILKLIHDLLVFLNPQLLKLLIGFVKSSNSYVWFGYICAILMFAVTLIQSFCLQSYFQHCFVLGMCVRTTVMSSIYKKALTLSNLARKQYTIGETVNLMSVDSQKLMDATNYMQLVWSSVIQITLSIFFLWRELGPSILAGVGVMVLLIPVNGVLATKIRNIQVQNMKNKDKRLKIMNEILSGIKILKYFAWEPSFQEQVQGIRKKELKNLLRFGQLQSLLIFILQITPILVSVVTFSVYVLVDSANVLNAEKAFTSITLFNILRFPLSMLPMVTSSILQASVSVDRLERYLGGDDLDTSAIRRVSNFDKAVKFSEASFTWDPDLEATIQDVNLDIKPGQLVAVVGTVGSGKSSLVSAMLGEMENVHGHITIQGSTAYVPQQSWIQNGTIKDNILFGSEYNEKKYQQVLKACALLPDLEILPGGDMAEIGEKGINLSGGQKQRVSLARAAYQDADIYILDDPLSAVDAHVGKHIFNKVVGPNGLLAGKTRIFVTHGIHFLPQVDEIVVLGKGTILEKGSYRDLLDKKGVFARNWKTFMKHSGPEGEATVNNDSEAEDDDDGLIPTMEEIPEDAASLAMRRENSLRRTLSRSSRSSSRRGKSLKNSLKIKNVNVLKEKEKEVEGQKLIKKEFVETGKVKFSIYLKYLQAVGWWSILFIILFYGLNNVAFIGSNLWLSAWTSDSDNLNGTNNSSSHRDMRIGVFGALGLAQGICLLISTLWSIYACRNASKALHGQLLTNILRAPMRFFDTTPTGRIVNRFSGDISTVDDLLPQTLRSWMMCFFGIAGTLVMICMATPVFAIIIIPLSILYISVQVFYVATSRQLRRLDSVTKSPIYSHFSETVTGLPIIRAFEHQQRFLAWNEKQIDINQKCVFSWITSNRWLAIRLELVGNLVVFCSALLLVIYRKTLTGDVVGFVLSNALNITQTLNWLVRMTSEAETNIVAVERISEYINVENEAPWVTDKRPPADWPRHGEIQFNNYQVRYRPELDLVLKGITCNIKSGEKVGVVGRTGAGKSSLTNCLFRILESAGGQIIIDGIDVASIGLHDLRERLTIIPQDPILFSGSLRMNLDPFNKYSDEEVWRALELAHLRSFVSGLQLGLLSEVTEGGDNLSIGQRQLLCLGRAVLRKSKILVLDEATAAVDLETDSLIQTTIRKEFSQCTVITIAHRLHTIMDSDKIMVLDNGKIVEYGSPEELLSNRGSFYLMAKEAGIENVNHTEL

Compound | Ki
Nc1nc(N)c2nc(CN3CCSc4cc(C(=O)N[C@@H](CCCC(=O)N[C@@H](CCC(=O)O)C(=O)O)C(=O)O)ccc43)cnc2n1 | 223 µM
Cc1cc(C(=O)NC(CCC(=O)O)C(=O)O)cc2c1N(Cc1cnc3nc(N)nc(N)c3n1)CC2 (stereo not given) | 173 µM
Cc1cc(C(=O)NC(CCC(=O)O)C(=O)O)ccc1N(C)Cc1cnc2nc(N)nc(N)c2n1 (stereo not given) | 150 µM
CN(Cc1cnc2nc(N)nc(N)c2n1)c1ccc(C(=O)NC(CCC(=O)NC(CCC(=O)N[C@@H](CCC(=O)O)C(=O)O)C(=O)O)C(=O)O)cc1 (stereo not given in full) | 838 µM
CN(Cc1cnc2nc(N)nc(N)c2n1)c1ccc(C(=O)N[C@@H](CCC(=O)O)C(=O)O)cc1 [METHOTREXATE] | 462 µM
CC(C)CC(NC(=O)c1ccc(N(C)Cc2cnc3nc(N)nc(N)c3n2)cc1)C(=O)O (stereo not given) | 308 µM
CN(Cc1cnc2nc(N)nc(N)c2n1)c1ccc(C(=O)NC(CCC(=O)NC(CCC(=O)NC(CCC(=O)NC(CCC(=O)N[C@@H](CCC(=O)O)C(=O)O)C(=O)O)C(=O)O)C(=O)O)C(=O)O)cc1 (stereo not given in full) | 501 µM
C=CCN(Cc1cnc2nc(N)nc(N)c2n1)c1ccc(C(=O)NC(CCC(=O)O)C(=O)O)cc1 (stereo not given) | 136 µM
CC(C)N(Cc1cnc2nc(N)nc(N)c2n1)c1ccc(C(=O)N2C[C@H](O)C[C@H]2C(=O)O)cc1 | 784 µM
Nc1nc(N)c2nc(CN3CCSc4cc(C(=O)NC(CCCC(=O)O)C(=O)O)ccc43)cnc2n1 (stereo not given) | 159 µM
CC(C)N(Cc1cnc2nc(N)nc(N)c2n1)c1ccc(C(=O)NC(CCC(=O)O)C(=O)O)cc1 (stereo not given) [ISOAMINOPTERIN] | 173 µM
Nc1nc(N)c2nc(CN3CCOc4cc(C(=O)NC(CCC(=O)O)C(=O)O)ccc43)cnc2n1 (stereo not given) | 311 µM
CCCN(Cc1cnc2nc(N)nc(N)c2n1)c1ccc(C(=O)NC(CCC(=O)O)C(=O)O)cc1 (stereo not given) | 154 µM
Nc1nc(N)c2nc(CN3CCSc4cc(C(=O)NC(CCC(=O)O)C(=O)O)ccc43)cnc2n1 (stereo not given) | 137 µM
CN(Cc1cnc2nc(N)nc(N)c2n1)c1ccc(C(=O)N2C[C@H](O)C[C@H]2C(=O)O)cc1 | > 1000 µM
Cc1cc(C(=O)NC(CCC(=O)O)C(=O)O)ccc1NCc1cnc2nc(N)nc(N)c2n1 (stereo not given) | 382 µM
Nc1nc(N)c2nc(CN3CCOc4cc(C(=O)NC(CCCC(=O)O)C(=O)O)ccc43)cnc2n1 (stereo not given) | 204 µM

The remaining compounds from weak to strong by Ki, led by results:

Ki | Compound
133 µM | Cc1cc(C(=O)NC(CCCC(=O)O)C(=O)O)ccc1N(C)Cc1cnc2nc(N)nc(N)c2n1 (stereo not given)
98.3 µM | CCN(Cc1cnc2nc(N)nc(N)c2n1)c1ccc(C(=O)NC(CCC(=O)O)C(=O)O)cc1C (stereo not given)
56.9 µM | CCC(C)C(NC(=O)c1ccc(N(C)Cc2cnc3nc(N)nc(N)c3n2)cc1)C(=O)O (stereo not given)
48.7 µM | CN(Cc1cnc2nc(N)nc(N)c2n1)c1ccc(C(=O)NC(CCCNC(=O)c2ccccc2)C(=O)O)cc1 (stereo not given)
39.2 µM | Cc1cc(C(=O)NC(CCC(=O)O)C(=O)O)cc(C)c1N(C)Cc1cnc2nc(N)nc(N)c2n1 (stereo not given)
32.5 µM | CCN(Cc1cnc2nc(N)nc(N)c2n1)c1ccc(C(=O)NC(CCCNC(=O)c2ccccc2)C(=O)O)cc1 (stereo not given)
14.8 µM | CC(C)N(Cc1cnc2nc(N)nc(N)c2n1)c1ccc(C(=O)NC(CCCNC(=O)c2ccccc2)C(=O)O)cc1 (stereo not given)
11.4 µM | CCCN(Cc1cnc2nc(N)nc(N)c2n1)c1ccc(C(=O)NC(CCCNC(=O)c2ccccc2)C(=O)O)cc1 (stereo not given)
